Measurements: ChEMBL document CHEMBL4725459, “Novel Pyrazoles as Hemoglobin Modulators for Treating Sickle Cell Disease” (ACS Med Chem Lett, 2020)

What was measured:
[1] = Stabilization of purified human sickle cell hemoglobin at its oxygenated (R) state assessed as reduction in conversion from oxygenated (R, relaxed state) to deoxygenated (T, tense state) under deoxygenating conditions
[2] = Binding affinity to purified human sickle cell hemoglobin by SPR assay

| IC50 [1] [µM] | SMILES | Kd [2] [µM] |
| --- | --- | --- |
| 3.62 | C[C@H](Oc1cc2cc(F)cc(F)c2nc1N)c1ncc(F)cc1-n1cccn1 | 0.045 |
| 3.83 | C[C@H](Oc1cc2cc(F)ccc2nc1N)c1nc(OCCO)ccc1-n1cccn1 | 0.044 |
| 3.76 | CC(=O)c1nc2[nH]ncc2cc1-n1cccn1 | 0.036 |
| 3.93 | C[C@H](Oc1cc2cc(C(N)=O)cc(F)c2nc1N)c1ncc(F)cc1-n1cccn1 | 0.068 |
| 3.89 | C[C@H](Oc1cc2cc(F)ccc2nc1N)c1cc(OCC(=O)O)ccc1-n1cccn1 | 0.063 |
| 3.6 | C[C@H](Oc1cc2cc(F)ccc2nc1N)c1cc(CCC(=O)O)ccc1-n1cccn1 | 0.188 |
